Test results taken from ChEMBL document CHEMBL4765306, “Design, synthesis and biological evaluation of novel naturally-inspired multifunctional molecules for the management of Alzheimer's disease” (Eur J Med Chem, 2020).
Calls of active or inactive are those of the source. The calls are words filed in the database; no cut-off is given here.

Assays:
Acetylcholinesterase [1] = target: T1, Acetylcholinesterase (Homo sapiens, UniProt P22303); experiment: Inhibition of recombinant human erythrocyte AChE using acetylthiocholine iodide as substrate preincubated for 30 mins followed by substrate addition and measured after 30 mins by spectrophotometry based Ellman's method
T1 sequence (P22303 whole entry): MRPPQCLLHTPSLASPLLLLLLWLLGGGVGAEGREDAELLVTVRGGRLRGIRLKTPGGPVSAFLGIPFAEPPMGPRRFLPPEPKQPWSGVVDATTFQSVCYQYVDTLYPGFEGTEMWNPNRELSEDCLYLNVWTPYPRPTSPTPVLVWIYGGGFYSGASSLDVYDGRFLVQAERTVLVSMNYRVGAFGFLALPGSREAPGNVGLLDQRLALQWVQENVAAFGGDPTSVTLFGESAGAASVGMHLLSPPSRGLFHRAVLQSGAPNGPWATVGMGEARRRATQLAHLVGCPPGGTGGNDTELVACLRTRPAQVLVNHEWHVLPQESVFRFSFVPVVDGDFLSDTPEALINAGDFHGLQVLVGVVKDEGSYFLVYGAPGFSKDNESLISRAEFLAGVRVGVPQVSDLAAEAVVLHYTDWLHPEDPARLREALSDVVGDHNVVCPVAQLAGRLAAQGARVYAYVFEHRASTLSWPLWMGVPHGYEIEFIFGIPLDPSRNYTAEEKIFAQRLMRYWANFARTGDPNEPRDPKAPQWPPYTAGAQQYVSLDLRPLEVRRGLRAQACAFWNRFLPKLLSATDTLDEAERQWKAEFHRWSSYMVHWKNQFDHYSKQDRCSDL

[2] = target: Cholinesterase (Equus caballus) (UniProt P81908); experiment: Inhibition of […] equine serum BuChE at 20 uM using butyryl thiocholine iodide as substrate preincubated for 30 mins followed by substrate addition and measured after 30 mins by spectrophotometry based Ellman's method relative to control; type: cell-free; settings: time 60.0 min
Chain of Cholinesterase (Equus caballus) (P81908 whole entry): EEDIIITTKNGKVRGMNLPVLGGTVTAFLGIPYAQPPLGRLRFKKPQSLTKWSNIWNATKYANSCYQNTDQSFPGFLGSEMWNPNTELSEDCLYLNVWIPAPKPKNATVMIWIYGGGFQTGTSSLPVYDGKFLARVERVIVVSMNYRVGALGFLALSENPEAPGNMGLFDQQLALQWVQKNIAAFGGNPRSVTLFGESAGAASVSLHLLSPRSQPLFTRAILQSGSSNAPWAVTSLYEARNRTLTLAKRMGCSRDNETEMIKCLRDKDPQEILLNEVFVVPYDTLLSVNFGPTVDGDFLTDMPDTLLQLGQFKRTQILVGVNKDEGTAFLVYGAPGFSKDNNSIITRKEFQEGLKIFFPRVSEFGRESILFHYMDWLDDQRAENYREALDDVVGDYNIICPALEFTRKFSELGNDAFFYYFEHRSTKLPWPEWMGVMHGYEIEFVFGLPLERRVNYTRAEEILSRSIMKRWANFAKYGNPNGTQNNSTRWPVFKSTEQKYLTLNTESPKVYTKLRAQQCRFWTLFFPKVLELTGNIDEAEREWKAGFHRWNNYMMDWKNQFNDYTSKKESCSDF

[3] = Antioxidant activity assessed as DPPH radical scavenging activity at 20 uM incubated for 25 mins in shaker relative to control; type: functional
[4] = Antioxidant activity assessed as DPPH radical scavenging activity incubated for 25 mins in shaker; type: functional
Cholinesterase = Cholinesterase (Equus caballus, UniProt P81908); experiment: Inhibition of […] equine serum BuChE using butyryl thiocholine iodide as substrate preincubated for 30 mins followed by substrate addition and measured after 30 mins by spectrophotometry based Ellman's method; type: cell-free
Chain of Cholinesterase (P81908 whole entry): as above

[5] = Metal chelating activity assessed as Fe3+-compound complex formation at 300 uM measured for 30 mins by UV-Visible spectrophotometric method
[6] = Metal chelating activity assessed as Fe3+-compound complex formation at 300 uM measured for 30 mins by MS-MS analysis
Homo sapiens = species: Homo sapiens; experiment: Disruption of human amyloid beta 1 to 42 assessed as effect on amyloid beta 1 to 42 morphology at 1.58 uM incubated for 10 days by atomic force microscopic analysis; settings: time 10.0 day
Mus musculus [7] = experiment: Memory enhancement effect in scopolamine-induced Swiss albino mouse model of amnesia assessed as increase in spontaneous alteration at 5 mg/kg, po administered for 7 days and observed after 30 mins before scopolamine treatment and measured after 15 mins by Y-maze test; type: functional, organism-based; settings: time 7.0 day
Mus musculus [8] = experiment: Memory enhancement effect in scopolamine-induced Swiss albino mouse model of amnesia assessed as effect on total arm entries at 5 mg/kg, po administered for 7 days and observed after 30 mins before scopolamine treatment and measured after 15 mins by Y-maze test; type: functional, organism-based; settings: time 7.0 day
Acetylcholinesterase [9] = target: T1, Acetylcholinesterase; experiment: Inhibition of AChE (unknown origin) at 20 uM relative to control
[10] = target: Cholinesterase (Homo sapiens) (UniProt P06276); experiment: Inhibition of BuChE (unknown origin) at 20 uM relative to control
Chain of Cholinesterase (Homo sapiens) (P06276 whole entry): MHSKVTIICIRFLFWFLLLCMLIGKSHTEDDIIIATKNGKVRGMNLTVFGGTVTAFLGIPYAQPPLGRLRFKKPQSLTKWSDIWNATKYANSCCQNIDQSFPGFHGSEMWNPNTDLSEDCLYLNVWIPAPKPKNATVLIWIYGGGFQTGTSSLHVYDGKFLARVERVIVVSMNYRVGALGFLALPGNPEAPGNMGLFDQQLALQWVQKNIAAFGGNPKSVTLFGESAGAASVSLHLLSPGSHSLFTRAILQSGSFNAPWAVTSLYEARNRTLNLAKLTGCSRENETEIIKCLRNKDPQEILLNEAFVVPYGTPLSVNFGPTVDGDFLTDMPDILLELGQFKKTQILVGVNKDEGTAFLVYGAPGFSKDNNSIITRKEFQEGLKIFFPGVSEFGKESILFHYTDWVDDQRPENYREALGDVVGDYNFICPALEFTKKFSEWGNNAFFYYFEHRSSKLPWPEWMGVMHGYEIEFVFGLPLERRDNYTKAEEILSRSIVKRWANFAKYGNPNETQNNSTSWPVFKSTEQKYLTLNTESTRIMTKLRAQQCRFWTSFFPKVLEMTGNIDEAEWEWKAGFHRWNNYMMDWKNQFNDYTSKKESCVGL

Acetylcholinesterase [11] = target: T1, Acetylcholinesterase; experiment: Inhibition of recombinant human erythrocyte AChE at 20 uM using acetylthiocholine iodide as substrate preincubated for 30 mins followed by substrate addition and measured after 30 mins by spectrophotometry based Ellman's method relative to control; settings: time 60.0 min
Mus musculus [12] = experiment: Memory enhancement effect in scopolamine-induced Swiss albino mouse model of amnesia assessed as increase in spontaneous alteration at 12.5 to 25 mg/kg, po administered for 7 days and observed after 30 mins before scopolamine treatment and measured after 15 mins by Y-maze test; type: functional, organism-based; settings: dose 12.5-25 mg/kg, time 7.0 day
Mus musculus [13] = experiment: Memory enhancement effect in scopolamine-induced Swiss albino mouse model of amnesia assessed as effect on total arm entries at 12.5 to 25 mg/kg, po administered for 7 days and observed after 30 mins before scopolamine treatment and measured after 15 mins by Y-maze test; type: functional, organism-based; settings: dose 12.5-25 mg/kg, time 7.0 day
Mus musculus [14] = experiment: Ex vivo inhibition of AChE in brain of scopolamine-induced Swiss albino mouse model of amnesia at 12.5 to 25 mg/kg, po administered for 7 days and observed after 30 mins before scopolamine treatment and measured after 15 mins using acetylthiocholine iodide as substrate by Ellman's method; type: functional, organism-based; settings: dose 12.5-25 mg/kg, time 7.0 day
Mus musculus [15] = experiment: Ex vivo inhibition of BChE in brain of scopolamine-induced Swiss albino mouse model of amnesia at 12.5 to 25 mg/kg, po administered for 7 days and observed after 30 mins before scopolamine treatment and measured after 15 mins using butyryl thiocholine iodide as substrate by Ellman's method; type: functional, organism-based; settings: dose 12.5-25 mg/kg, time 7.0 day
Mus musculus [16] = experiment: Ex vivo antioxidant activity in brain of scopolamine-induced Swiss albino mouse model of amnesia assessed as increase in SOD level at 12.5 to 25 mg/kg, po administered for 7 days and observed after 30 mins before scopolamine treatment and measured after 15 mins; type: functional, organism-based; settings: dose 12.5-25 mg/kg, time 7.0 day
Mus musculus [17] = experiment: Ex vivo antioxidant activity in brain of scopolamine-induced Swiss albino mouse model of amnesia assessed as increase in CAT level at 12.5 to 25 mg/kg, po administered for 7 days and observed after 30 mins before scopolamine treatment and measured after 15 mins; type: functional, organism-based; settings: dose 12.5-25 mg/kg, time 7.0 day
Mus musculus [18] = experiment: Ex vivo antioxidant activity in brain of scopolamine-induced Swiss albino mouse model of amnesia assessed as decrease in MDA level at 12.5 to 25 mg/kg, po administered for 7 days and observed after 30 mins before scopolamine treatment and measured after 15 mins; type: functional, organism-based; settings: dose 12.5-25 mg/kg, time 7.0 day
Acetylcholinesterase [19] = target: T1, Acetylcholinesterase; experiment: Non-competitive inhibition of recombinant human erythrocyte AChE at 1 to 10 uM using acetylthiocholine iodide as substrate preincubated for 30 mins followed by substrate addition and measured after 30 mins by Lineweaver-burk plot analysis; settings: dose 1-10 µM, time 60.0 min
[20] = target: Cholinesterase (Equus caballus) (UniProt P81908); experiment: Mixed-type inhibition of […] equine serum BuChE at 7.5 to 30 uM using butyryl thiocholine iodide as substrate preincubated for 30 mins followed by substrate addition and measured after 30 mins by Lineweaver-burk plot analysis; type: cell-free; settings: dose 7.5-30 µM, time 60.0 min
[21] = Cytotoxicity against human SH-SY5Y cells assessed as reduction in cell viability at 20 uM incubated for 24 hrs by MTT assay; type: cell-based; settings: read-out: INH
[22] = Acute toxicity in Swiss albino mouse assessed as organism death at 500 mg/kg, po administered once and observed for 14 days; type: organism-based; settings: in vivo, 336 h, time 14 day
[23] = Acute toxicity in Swiss albino mouse assessed as abnormal behaviour at 500 mg/kg, po administered once and observed for 14 days; type: organism-based; settings: in vivo, 336 h, time 14 day
[24] = Acute toxicity in Swiss albino mouse assessed as effect on water consumption at 500 mg/kg, po administered once and observed for 14 days; type: organism-based; settings: in vivo, 336 h, time 14 day
[25] = Acute toxicity in Swiss albino mouse assessed as effect on food consumption at 500 mg/kg, po administered once and observed for 14 days; type: organism-based; settings: in vivo, 336 h, time 14 day
[26] = Acute toxicity in Swiss albino mouse assessed as effect on body weight at 500 mg/kg, po administered once and observed for 14 days; type: organism-based; settings: in vivo, 336 h, time 14 day
[27] = Acute toxicity in Swiss albino mouse assessed as liver damage at 500 mg/kg, po administered once and observed after 14 days by microscopic analysis; type: organism-based; settings: in vivo, 336 h, time 14 day
Mus musculus [28] = experiment: Memory enhancement effect in scopolamine-induced Swiss albino mouse model of amnesia assessed as increase in spontaneous alteration at 6.25 to 25 mg/kg, po administered for 7 days and observed after 30 mins before scopolamine treatment and measured after 15 mins by Y-maze test; type: functional, organism-based; settings: dose 6.25-25 mg/kg, time 7.0 day
Mus musculus [29] = experiment: Memory enhancement effect in scopolamine-induced Swiss albino mouse model of amnesia assessed as effect on total arm entries at 6.25 to 25 mg/kg, po administered for 7 days and observed after 30 mins before scopolamine treatment and measured after 15 mins by Y-maze test; type: functional, organism-based; settings: dose 6.25-25 mg/kg, time 7.0 day
Mus musculus [30] = experiment: Ex vivo inhibition of AChE in brain of scopolamine-induced Swiss albino mouse model of amnesia at 6.25 to 25 mg/kg, po administered for 7 days and observed after 30 mins before scopolamine treatment and measured after 15 mins using acetylthiocholine iodide as substrate by Ellman's method; type: functional, organism-based; settings: dose 6.25-25 mg/kg, time 7.0 day
Mus musculus [31] = experiment: Ex vivo inhibition of BChE in brain of scopolamine-induced Swiss albino mouse model of amnesia at 6.25 to 25 mg/kg, po administered for 7 days and observed after 30 mins before scopolamine treatment and measured after 15 mins using butyryl thiocholine iodide as substrate by Ellman's method; type: functional, organism-based; settings: dose 6.25-25 mg/kg, time 7.0 day
Mus musculus [32] = experiment: Ex vivo antioxidant activity in brain of scopolamine-induced Swiss albino mouse model of amnesia assessed as increase in SOD level at 6.25 to 25 mg/kg, po administered for 7 days and observed after 30 mins before scopolamine treatment and measured after 15 mins; type: functional, organism-based; settings: dose 6.25-25 mg/kg, time 7.0 day
Mus musculus [33] = experiment: Ex vivo antioxidant activity in brain of scopolamine-induced Swiss albino mouse model of amnesia assessed as increase in CAT level at 6.25 to 25 mg/kg, po administered for 7 days and observed after 30 mins before scopolamine treatment and measured after 15 mins; type: functional, organism-based; settings: dose 6.25-25 mg/kg, time 7.0 day
Mus musculus [34] = experiment: Ex vivo antioxidant activity in brain of scopolamine-induced Swiss albino mouse model of amnesia assessed as decrease in MDA level at 6.25 to 25 mg/kg, po administered for 7 days and observed after 30 mins before scopolamine treatment and measured after 15 mins; type: functional, organism-based; settings: dose 6.25-25 mg/kg, time 7.0 day

Row | SMILES | IC50 (Acetylcholinesterase [1]) [µM] | inhibition [2] [%] | Activity [3] [%] | IC50 [4] [µM] | other results
1 | COc1cc(/C=C/C(=O)NCC(=O)Nc2cccc(Br)c2)ccc1O | 13.1 | 36.6 | – | – | –
2 | COc1cccc(N2CCN(C(=O)/C=C/c3ccc(O)c(OC)c3)CC2)c1 | 9.91 | 26.9 | 28.8 | 62 | –
3 | COc1cccc(NC(=O)CNC(=O)/C=C/c2ccc(O)c(OC)c2)c1 | 2.42 | 55.4 | 19.1 | 94.3 | IC50 (Cholinesterase): 15.3 µM; Activity [5]: Active; Activity [6]: Active
4 | COc1cc(/C=C/C(=O)NCC(=O)Nc2cccc(F)c2)ccc1O | 22.1 | 38.3 | – | – | –
5 | COc1cc(/C=C/C(=O)NCC(=O)Nc2cccc(Cl)c2)ccc1O | 5.68 | 48.5 | 12.7 | 108 | –
6 | COc1cc(/C=C/C(=O)N2CCN(c3cccc([N+](=O)[O-])c3)CC2)ccc1O | 23.4 | 37.9 | – | – | –
7 | COc1cc(/C=C/C(=O)NCC(=O)Nc2ccccc2Cl)ccc1O | 5.72 | 47.4 | – | – | –
8 | COc1cc(/C=C/C(=O)N2CCN(c3ccc(F)cc3)CC2)ccc1O | 11 | 27.7 | – | – | –
9 | COc1cc2c(cc1OC)C(=O)C(CC1CCN(Cc3ccccc3)CC1)C2 (configuration not stated) | – | – | – | – | Activity (Homo sapiens): inactive; Activity (Mus musculus [7]): Active; Activity (Mus musculus [8]): Active
10 | COc1cc(/C=C/C(=O)O)ccc1O [FERULATE] | – | 19.7 | 28.6 | 56.5 | inhibition (Acetylcholinesterase [9]): < 20%; inhibition [10]: < 20%; inhibition (Acetylcholinesterase [11]): < 10%; Activity (Homo sapiens): Active; Activity (Mus musculus [12]): inactive; Activity (Mus musculus [13]): inactive; Activity (Mus musculus [14]): inactive; Activity (Mus musculus [15]): inactive; Activity (Mus musculus [16]): Active; Activity (Mus musculus [17]): Active; Activity (Mus musculus [18]): Active
11 | COc1cc(/C=C/C(=O)NCC(=O)Nc2ccccc2)ccc1O | 21.9 | 38.2 | – | – | –
12 | COc1cc(/C=C/C(=O)NCC(=O)Nc2ccc3ncccc3c2)ccc1O | 4.89 | 57.7 | 18.6 | 77.6 | IC50 (Cholinesterase): 14.3 µM
13 | COc1cc(/C=C/C(=O)NCC(=O)Nc2ccccc2C)ccc1O | 16.3 | 36.8 | – | – | –
14 | COc1cc(/C=C/C(=O)NCC(=O)Nc2ccc3[nH]ccc3c2)ccc1O | 5.74 | 58.7 | 31.3 | 57.4 | inhibition (Acetylcholinesterase [19]): Active; IC50 (Cholinesterase): 14 µM; inhibition [20]: Active; Activity [5]: Active; Activity [6]: Active; Activity (Homo sapiens): Active; cytotoxicity at 24 h, 20 µM [21]: 4.39%; Activity [22]: Non-Toxic; Activity [23]: Non-Toxic; Activity [24]: Non-Toxic; Activity [25]: Non-Toxic; Activity [26]: Non-Toxic; Activity [27]: Non-Toxic; Activity (Mus musculus [28]): Active; Activity (Mus musculus [29]): Active; Activity (Mus musculus [30]): Active; Activity (Mus musculus [31]): Active; Activity (Mus musculus [32]): Active; Activity (Mus musculus [33]): Active; Activity (Mus musculus [34]): Active
15 | COc1cc(/C=C/C(=O)NCC(=O)Nc2ccc(C(F)(F)F)cc2)ccc1O | 8.23 | 37.2 | – | – | –
